Test results: PubChem BioAssay AID2060338 (Molecular Pharmacology Branch, DTP, NCI, 2025)
Where “and” joins values, the source holds several entries; their conditions need not be identical. Equal entries are not always repeated.

Test system: 556581-035-R-J1-PDC spheroids with HUVEC/MSC, viability
Assay: Anticancer human tumor 556581-035-R-J1-PDC patient-derived ovarian carcinoma cell line growth inhibition [IpAb]
Conditions: for viability, T/C: stronger effect = lower value
Description: Combinatorial screen of targeted agents with ipatasertib and abemaciclib in multi-cell type tumor spheroids
A high-throughput screen of multi-cell type tumor spheroids was designed to identify active combinations of targeted small molecules and ipatasertib or abemaciclib. Complex spheroids include a stromal component modeled by human endothelial cells (HUVEC) and fibroblasts modeled by human mesenchymal stem cells (MSCs). The concentration ranges selected for each drug and investigational agent were based upon clinically achievable concentrations if the clinical Cmax of the agent was known.
Compounds. The drugs and investigational agents: ipatasertib (NSC767898), abemaciclib(NSC768073), selumetinib (NSC741078), trametinib (758246), adavosertib (NSC754352), everolimus (NSC733504), sapanisertib (NSC764658), vemurafenib (NSC761431), venetoclax (NSC766270), copanlisib (NSC809693), apelisib (NSC765974), palbociblib (NSC758247), vemurafenib (NSC761431), dabrafenib (NSC764134), ravoxertinib (NSC781343), BMS-387032 (NSC767048), sotorasib (NSC818433), talazoparib (NSC767125) and afursertib (NSC778305), were obtained from the National Cancer Institute (NCI) Developmental Therapeutics Program Chemical Repository. The FDA-approved anticancer drug set is available from the NCI Developmental Therapeutics Program. […] The stock solutions were prepared in dimethyl sulfoxide (DMSO, Sigma-Aldrich, St. Louis, MO, cat. D2650) at 800-fold the tested concentration and stored at -70 degrees C prior to their use. All drugs and investigational agents were tested over a range starting from a high concentration at or near the clinical Cmax and decreasing in half-log increments. If the clinical Cmax for an agent had not been determined, the highest concentration tested was 10 microM.
NCI60 Cell Culture. NCI60 cell lines were obtained from the NCI Developmental Therapeutics Program Tumor Repository. For each lot of cells, the Repository performed Applied Biosystems AmpFLSTR Identifiler testing with PCR amplification to confirm consistency with the published Identifier STR profile for each cell line. Cells were kept in continuous culture for no more than 20 passages. The optimal seeding densities for each of the cell lines at each time point assessed were determined prior to performing the concentration response studies. Briefly, the NCI60 human tumor lines were grown as monolayers in RPMI 1640 medium supplemented with 10% FBS and 2 mmol/L L-glutamine.
An additional 9 lines were from the NCI60 cell line panel including MDA-MB-231 breast carcinoma, MDA-MB-468 breast carcinoma, MCF7 breast carcinoma, Hs578T breast carcinoma, MALME-3M melanoma, SK-MEL-2 melanoma, SK-OV-3 ovarian carcinoma, DU-145 prostate carcinoma, PC-3 prostate carcinoma, all cell lines along with major genetic alterations are listed on Table 2. Pooled donor human umbilical vein endothelial cells (HUVEC, Lonza, cat. CC-2519) and human mesenchymal stem cells (hMSC, Lonza, cat. PT-2501) were purchased from Lonza (Walkersville, MD).
PDMR cell lines were grown in complete medium (DC medium): Dulbecco's modified Eagle's medium (DMEM)/F12 supplemented with 5% fetal bovine serum (FBS), 2 mM L-glutamine, 100 U/mL penicillin and 100 µg/ml streptomycin, 0.4 µg/ml hydrocortisone, 10 ng/ml epidermal growth factor (EGF) recombinant human protein, 24 µg/mL adenine, and 0.1 mg/mL primocin. During culture from frozen stock vials, PDMR cells were cultured in the same medium containing 10 µM Y-27632 (see Table 3). The PDCs were cultured in complete DMEM/F12 media without 10 microM Y-27632 dihydrochloride for at least two passages prior to the screen. The pooled donor HUVEC and hMSC were cultured in endothelial cell growth medium 2 (PromoCell, Heidelberg, Germany, cat. C-22011) and mesenchymal stem cell growth medium 2 (PromoCell, cat. C-28009), respectively. For all experiments, HUVEC and hMSC were used at passages </=5.
[…]

[1] = curve of first compound, second compound 0.01 µM
[2] = curve of first compound, second compound 0.0316 µM
[3] = curve of first compound, second compound 0.1 µM
[4] = curve of first compound, second compound 0.316 µM
[5] = curve of first compound, second compound 1 µM
[6] = second compound 0.01 µM, first compound 0.0316 µM
[7] = second compound 0.01 µM, first compound 0.1 µM
[8] = second compound 0.01 µM, first compound 0.316 µM
[9] = second compound 0.01 µM, first compound 1 µM
[10] = second compound 0.01 µM, first compound 3.16 µM
[11] = second compound 0.01 µM, first compound 10 µM
[12] = second compound 0.0316 µM, first compound 0.0316 µM
[13] = second compound 0.0316 µM, first compound 0.1 µM
[14] = second compound 0.0316 µM, first compound 0.316 µM
[15] = second compound 0.0316 µM, first compound 1 µM
[16] = second compound 0.0316 µM, first compound 3.16 µM
[17] = second compound 0.0316 µM, first compound 10 µM
[18] = second compound 0.1 µM, first compound 0.0316 µM
[19] = second compound 0.1 µM, first compound 0.1 µM
[20] = second compound 0.1 µM, first compound 0.316 µM
[21] = second compound 0.1 µM, first compound 1 µM
[22] = second compound 0.1 µM, first compound 3.16 µM
[23] = second compound 0.1 µM, first compound 10 µM
[24] = second compound 0.316 µM, first compound 0.0316 µM
[25] = second compound 0.316 µM, first compound 0.1 µM
[26] = second compound 0.316 µM, first compound 0.316 µM
[27] = second compound 0.316 µM, first compound 1 µM
[28] = second compound 0.316 µM, first compound 3.16 µM
[29] = second compound 0.316 µM, first compound 10 µM
[30] = second compound 1 µM, first compound 0.0316 µM
[31] = second compound 1 µM, first compound 0.1 µM
[32] = second compound 1 µM, first compound 0.316 µM
[33] = second compound 1 µM, first compound 1 µM
[34] = second compound 1 µM, first compound 3.16 µM
[35] = second compound 1 µM, first compound 10 µM
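Further: spheroids exposed to compounds for 7 days before readout.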

| SMILES | IC50 [1] [µM] | IC50 [2] [µM] | IC50 [3] [µM] | IC50 [4] [µM] | IC50 [5] [µM] | viability, T/C [6] [%] | viability, T/C [7] [%] | viability, T/C [8] [%] | viability, T/C [9] [%] | viability, T/C [10] [%] | viability, T/C [11] [%] | viability, T/C [12] [%] | viability, T/C [13] [%] | viability, T/C [14] [%] | viability, T/C [15] [%] | viability, T/C [16] [%] | viability, T/C [17] [%] | viability, T/C [18] [%] | viability, T/C [19] [%] | viability, T/C [20] [%] | also measured |
| --- | --- | --- | --- | --- | --- | --- | --- | --- | --- | --- | --- | --- | --- | --- | --- | --- | --- | --- | --- | --- | --- |
| Cc1nc(NC(=O)N2CCCC2C(N)=O)sc1-c1ccnc(C(C)(C)C(F)(F)F)c1 (configuration not stated) + CCN1CCN(Cc2ccc(Nc3ncc(F)c(-c4cc(F)c5nc(C)n(C(C)C)c5c4)n3)nc2)CC1 | 0.388 | 0.274 | 0.401 | < 0.0316 | < 0.0316 | 87.3 | 65.6 | 47.3 | 39.6 | 33.2 | 10.3 | 70.4 | 58.8 | 42.9 | 42 | 27.5 | 9.58 | 67.8 | 62 | 52.7 | viability, T/C [21]: 39.5%; viability, T/C [22]: 25.2%; viability, T/C [23]: 7.2%; viability, T/C [24]: 46.7%; viability, T/C [25]: 47.9%; viability, T/C [26]: 40.8%; viability, T/C [27]: 36.7%; viability, T/C [28]: 31.2%; viability, T/C [29]: 11.3%; viability, T/C [30]: 48.9%; viability, T/C [31]: 37.9%; viability, T/C [32]: 39%; viability, T/C [33]: 30.2%; viability, T/C [34]: 20.2%; viability, T/C [35]: 9% |
| C=CC(=O)N1CCN(c2nc(=O)n(-c3c(C)ccnc3C(C)C)c3nc(-c4c(O)cccc4F)c(F)cc23)C(C)C1 (configuration not stated) | – | – | – | – | – | – | – | – | – | – | – | – | – | – | – | – | – | – | – | – | viability, T/C (compound 0.0316 µM): 107% and 97.3%; viability, T/C (compound 0.1 µM): 97.5% and 113%; viability, T/C (compound 0.316 µM): 113% and 118%; viability, T/C (compound 1 µM): 106% and 105%; viability, T/C (compound 3.16 µM): 102% and 126%; viability, T/C (compound 10 µM): 31.9% and 31.5%; IC50 (curve of compound): 7.44 µM and 7.68 µM |
| Cn1nccc1Nc1nccc(-c2ccn(C(CO)c3ccc(Cl)c(F)c3)c(=O)c2)n1 (configuration not stated) + CCN1CCN(Cc2ccc(Nc3ncc(F)c(-c4cc(F)c5nc(C)n(C(C)C)c5c4)n3)nc2)CC1 | 9.08 | 6.09 | 5.33 | 7.52 | 5.34 | 110 | 145 | 127 | 109 | 95.4 | 45.8 | 119 | 140 | 128 | 98.5 | 72 | 34.8 | 107 | 123 | 134 | viability, T/C [21]: 119%; viability, T/C [22]: 63.4%; viability, T/C [23]: 33.8%; viability, T/C [24]: 92.2%; viability, T/C [25]: 103%; viability, T/C [26]: 144%; viability, T/C [27]: 101%; viability, T/C [28]: 87.3%; viability, T/C [29]: 37.9%; viability, T/C [30]: 78%; viability, T/C [31]: 85.5%; viability, T/C [32]: 128%; viability, T/C [33]: 72.3%; viability, T/C [34]: 71.5%; viability, T/C [35]: 27.2% |
